Measured values: US20250188059A1, “NOVEL COMPOUND AND USE THEREOF FOR INHIBITING CHECKPOINT KINASE 2” (ARUM THERAPEUTICS INC, priority 2022, published 2025)
Where two headings read alike, the source gives them in different places.

Experiments:
[1] = test system: human breast cancer cell line MCF-7; assay: Cancer cell growth inhibition test (CellTiter-Glo); assay type: cell-based; details: MCF-7, 72 hours
Protocol: The human breast cancer cell line MCF-7 was treated with trypsin and harvested. The number of cells was counted, and about 3000 cells/80 μl per well were inoculated into a 96 well plate (Corning) and then incubated in a 37° C. incubator for 24 hours. Thereafter, the example compounds were diluted in a culture solution at various concentrations, and each well was treated with 20 μl and stored in a cell culture incubator for 72 hours. In the case of the group administered in combination, the example compounds and cisplatin or doxorubicin were diluted in a culture solution at various concentrations, and each well was treated with 20 μl. After 72 hours, each well was treated with 30 μl of CellTiter-Glo solution (Promega), and the luminescence was read on a Victor3 multi label reader (PerkinElmer).
Relative viability (%)=(value of each test well/value of well treated with DMSO alone)×100
The results obtained for each concentration for each example compound were the average values obtained from three wells, and PRIZM software was used for analysis of the results.

Chk2 kinase = Chk2 kinase (Homo sapiens (Human), UniProt O96017); assay: Chk2 kinase inhibitory activity (LanthaScreen TR-FRET); assay type: biochemical; details: graded
Protocol: The compounds of Examples 1 to 66 were diluted at various concentrations and transferred to a 384-well plate by 5 μl, and 10 μl of a mixed solution (2×) of Chk1 kinase (Thermo, P3040) or Chk2 kinase (Thermo, PV3367) and a substrate (Thermo, PV3508) was added to wells treated with the compounds. 5 μl of an ATP solution at a 4× concentration was added to the test well and reacted at room temperature for 1 hour. 20 μl of LanthaScreen Terbium-CREB p-Ser 133 antibody (Thermo, PV3542) was added to the reaction well and incubated at room temperature for 30 minutes. Conversion data was measured by an EnVision 2014 multi label reader (PerkinElmer). The activity for each concentration was determined by the ratio (FRET ratio=FR) of the value obtained by dividing the value at 520 nm by the value at 490 nm among the emission wavelength values for each wavelength (Em520/Em490). The results obtained for each concentration of the compounds were the average values obtained in two wells, and the IC50 values of the compounds were calculated using PRIZM software for analysis of the results. IC50 in Table 7 was graded as follows.

[2] = Homo sapiens, MCF7, 72 h, graded, read-out: Celltiter glo analysis (IC50)

Sequence of Chk2 kinase (O96017 whole entry): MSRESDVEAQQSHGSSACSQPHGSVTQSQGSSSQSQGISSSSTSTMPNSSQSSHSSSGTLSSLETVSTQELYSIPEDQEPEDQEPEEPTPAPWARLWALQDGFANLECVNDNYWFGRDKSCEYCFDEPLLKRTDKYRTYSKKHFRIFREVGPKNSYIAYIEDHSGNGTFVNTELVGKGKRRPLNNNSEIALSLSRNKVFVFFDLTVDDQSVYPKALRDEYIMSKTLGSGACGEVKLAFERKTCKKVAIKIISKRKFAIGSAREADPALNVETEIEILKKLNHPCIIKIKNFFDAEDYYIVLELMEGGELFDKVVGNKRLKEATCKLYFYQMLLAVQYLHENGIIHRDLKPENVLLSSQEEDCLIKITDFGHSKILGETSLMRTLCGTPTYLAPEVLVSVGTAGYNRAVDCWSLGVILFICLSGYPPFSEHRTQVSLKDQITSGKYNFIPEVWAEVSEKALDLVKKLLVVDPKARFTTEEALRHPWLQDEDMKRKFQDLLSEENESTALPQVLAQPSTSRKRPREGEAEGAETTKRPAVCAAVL

Compound	IC50 [1, 2]	IC50 (Chk2 kinase)	IC50 ([1]; graded, read-out: Celltiter glo analysis (IC50))	IC50 ([1]; alone, read-out: Administered alone (IC50))	IC50 ([1]; Homo sapiens, MCF7, 72 h, alone, read-out: Administered alone (IC50))
CC1(C)Cc2c(-c3cccc(-c4cnc(N)c(C(=O)N[C@@H]5CNCCOC5)n4)c3)cnn2C1 (stereo in doubt) [Example 61, 3-amino-6-(3-(5,5-dimethyl-5,6-dihydro-4H-pyrrolo[1,2-b]pyrazol-3-yl)phenyl)-N-(1,4-oxazepan-6-yl)pyrazine-2-carboxamide]	> 100 µM	≤ 0.01 µM			
Nc1ncc(-c2cc(-c3cnn(CC(F)(F)F)c3)ncc2F)nc1C(=O)N[C@H]1CCCNC1 [Example 1, (S)-3-amino-6-(5-fluoro-2-(1-(2,2,2-trifluoroethyl)-1H-pyrazol-4-yl)pyridin-4-yl)-N-(piperidin-3-yl) pyrazine-2-carboxamide]	10 to 100 µM	0.01 to 0.1 µM			
Nc1ncc(-c2cc(-c3cnn(CC(F)(F)F)c3)ncc2F)nc1C(=O)N[C@@H]1CNCC[C@H]1O [Example 3, 3-amino-6-(5-fluoro-2-(1-(2,2,2-trifluoroethyl)-1H-pyrazol-4-yl)pyridin-4-yl)-N-((3R,4R)-4-hydroxypiperidin-3-yl)pyrazine-2-carboxamide]	10 to 100 µM	≤ 0.01 µM			
CC(C)(O)Cn1cc(-c2cc(-c3cnc(N)c(C(=O)N[C@H]4CCCNC4)n3)ccn2)cn1 [Example 5, (S)-3-amino-6-(2-(1-(2-hydroxy-2-methylpropyl)-1H-pyrazol-4-yl)pyridin-4-yl)-N-(piperidin-3-yl) pyrazine-2-carboxamide]	> 100 µM	≤ 0.01 µM			
CC(C)(O)Cn1cc(-c2cc(-c3cnc(N)c(C(=O)NC4CNC[C@@H](F)C4)n3)ccn2)cn1 (stereo partly drawn) [Example 6, 3-amino-N-((3S,5S)-5-fluoropiperidin-3-yl)-6-(2-(1-(2-hydroxy-2-methylpropyl)-1H-pyrazol-4-yl)pyridin-4-yl)pyrazine-2-carboxamide]		≤ 0.01 µM	10 to 100 µM		
CC(C)(O)Cn1cc(-c2cc(-c3cnc(N)c(C(=O)N[C@H]4CCC5(CC5)NC4)n3)ccn2)cn1 [Example 7, (S)-3-amino-6-(2-(1-(2-hydroxy-2-methylpropyl)-1H-pyrazol-4-yl)pyridin-4-yl)-N-(4-azaspiro[2.5]octan-6-yl)pyrazine-2-carboxamide]	10 to 100 µM	≤ 0.01 µM			
Nc1ncc(-c2cc(-c3cnn(CC(F)(F)F)c3)ccc2F)nc1C(=O)N[C@H]1CCC2(CC2)NC1 [Example 8, (S)-3-amino-6-(2-fluoro-5-(1-(2,2,2-trifluoroethyl)-1H-pyrazol-4-yl)phenyl)-N-(4-azaspiro[2.5]octan-6-yl)pyrazine-2-carboxamide]	10 to 100 µM	0.01 to 0.1 µM			
Nc1ncc(-c2cc(-c3cnn(CC(F)(F)F)c3)ccc2F)nc1C(=O)N[C@@H]1CNCC[C@H]1O [Example 10, 3-amino-6-(2-fluoro-5-(1-(2,2,2-trifluoroethyl)-1H-pyrazol-4-yl)phenyl)-N-((3R,4R)-4-hydroxypiperidin-3-yl) pyrazine-2-carboxamide]	10 to 100 µM	0.01 to 0.1 µM			
Nc1ncc(-c2cc(-c3cnn(CC(F)(F)F)c3)ccc2F)nc1C(=O)N[C@@H]1CNC[C@H]1O [Example 11, 3-amino-6-(2-fluoro-5-(1-(2,2,2-trifluoroethyl)-1H-pyrazol-4-yl)phenyl)-N-((3R,4R)-4-hydroxypyrrolidin-3-yl) pyrazine-2-carboxamide]	10 to 100 µM	0.01 to 0.1 µM			
CC(C)(O)Cn1cc(-c2cc(-c3cnc(N)c(C(=O)NC4CNC[C@@H](F)C4)n3)ccn2)cn1 (stereo partly drawn) [Example 34, 3-amino-N-((3S,5S)-5-fluoropiperidin-3-yl)-6-(2-(1-(2-hydroxy-2-methylpropyl)-1H-pyrazol-4-yl)pyridin-4-yl)pyrazine-2-carboxamide]	10 to 100 µM				
N.N.[Cl][Pt][Cl] [cisplatin, reference compound]				26 µM	
COc1cccc2c1C(=O)c1c(O)c3c(c(O)c1C2=O)C[C@@](O)(C(=O)CO)C[C@@H]3O[C@H]1C[C@H](N)[C@H](O)[C@H](C)O1 [doxorubicin, reference compound]					1.5 µM
